Measurements taken from paper PMC5591244, “Novel selective, potent naphthyl TRPM8 antagonists identified through a combined ligand- and structure-based virtual screening approach” (Scientific Reports, 2017).
“Also recorded” adds a separate entry of the source. Like-named read-outs stand apart in the source and are kept apart here.

Experiments:
Type in all cases: cell-based
[1] = target: T1, wt TRPM8 (Homo sapiens, UniProt Q7Z2W7); test: Calcium mobilization on HEK-293 cells transiently transfected with wt myc-tagged TRPM8; conditions: icilin at EC80, wt; read-out: pIC50, inhibition of icilin activation, wt TRPM8 (converted)
T1 construct: expressed in transfected cells; host or cells: HEK-293, transient (Lipofectamine 2000)
Text: (§1) Single point mutations were introduced in the hTRPM8-coding sequence, and the mutated TRPM8 was cloned as N-terminal c-myc tagged version into the pcDNA3 expression vector. This was done in that way that the single variations could be easily swapped from the myc-tagged expression construct into the non-tagged TRPM8 wild type expression construct.
The list of the variants is the following: variant 1, t2233g, a2234c (=Y745A); variant 2, a2236g, t2237c (=I746A); variant 3, a2395g, a2396c (=N799A) and variant 4, a2405c (D802A). The cloning project comprised three steps. First of all, a unique XhoI restriction site was inserted by site-directed mutagenesis (SDM) using DNA of the pcDNA3_TRPM8 construct as template. The 0.6 kb DNA fragment between the unique 5′ XhoI (introduced) and 3′ BamHI (already present) restriction sites comprised all positions of the four single point mutations and could be later used for their insertion as well as swapping between myc-tagged and non-tagged TRPM8 versions. […] The obtained data from at least four wells (as replicates) were analyzed with GraphPad PRISM® software (version 5, GraphPad Software Inc.) to calculate the mean and standard error of the mean[58], to create sigmoidal concentration-response curves and to calculate IC50 values.

[2] = target: TRPV1 (Homo sapiens, UniProt Q8NER1); test: Selectivity calcium mobilization assay, TRPV1; conditions: agonist 100 nM Capsaicin
Procedure: (§2) For calcium mobilization assays, cells were seeded at 10,000 cells/well in 384-well plates coated with poly-D-lysine (MATRIX black/clear bottom #4332-CPL, Thermo Scientific, Waltham, MA, USA) in complete medium.Twenty-four hours after seeding, the plates were washed with Tyrode’s buffer with a Bio-Tek-ELx405 Microplate Washer (Merck Millipore; Billerica, MA, USA), and then 10 µl/well of a solution containing the fluorescent Ca^2+ indicator Fluo-4 NW dye was added. Cells were incubated for 1 h at room temperature before test compounds were added at 3X the concentration with respect to the final wanted concentration to be tested with a FLIPR TETRA system (Molecular Devices, Sunnyvale, CA, USA). Calcium mobilization was monitored over a period of 5 min. A second injection of 10 µl/well of a reference agonist (icilin or Cooling agent 10) at 4X concentration in assay buffer was performed using the FLIPR TETRA system. Of note, for selectivity assays, the following agonists were used: 10 μM AITC (allyl isothiocyanate) for TRPA1; 100 nM Capsaicin for TRPV1; and 20 nM GSK1016790A for TRPV4.

[3] = target: TRPV4 (Homo sapiens, UniProt Q9HBA0); test: Selectivity calcium mobilization assay, TRPV4; conditions: agonist 20 nM GSK1016790A
Procedure: as §2

[4] = target: T2, TRPM8 N799A (Homo sapiens, UniProt Q7Z2W7, N799A); test: Calcium mobilization on transiently transfected TRPM8 N799A mutant; conditions: Cooling agent 10 at EC80, N799A; read-out: pIC50, inhibition of Cooling agent 10 activation, N799A (converted)
T2 construct: expressed in transfected cells; host or cells: HEK-293, transient (Lipofectamine 2000)
Text: as §1
(§3) The list of the variants is the following: variant 1, t2233g, a2234c (=Y745A); variant 2, a2236g, t2237c (=I746A); variant 3, a2395g, a2396c (=N799A) and variant 4, a2405c (D802A). The cloning project comprised three steps. First of all, a unique XhoI restriction site was inserted by site-directed mutagenesis (SDM) using DNA of the pcDNA3_TRPM8 construct as template. The 0.6 kb DNA fragment between the unique 5′ XhoI (introduced) and 3′ BamHI (already present) restriction sites comprised all positions of the four single point mutations and could be later used for their insertion as well as swapping between myc-tagged and non-tagged TRPM8 versions. In a second step, the c-myc tag sequence was introduced embedded within the TRPM8 coding sequence by PCR primers in two partially overlapping PCRs that were then joined by bridge PCR with the external 5′KpnI and internal 3′EcoRI primers and in the last step the point mutations 1 to 4 were inserted into pcDNA3_c-myc-TRPM8 by exchanging the wild type 5′XhoI-3′BamHI fragment (0.6 kb) with each of the corresponding variation fragment derived from synthetic DNA (provided by GeneArt, ThermoFisher Scientific).The myc-tagged constructs were transiently transfected in HEK-293 cells with Lipofectamine 2000 (Invitrogen) according to the manufacturer’s protocol. The pcDNA vectors containing the wt myc-tagged TRPM8 gene and the empty pcDNA3 (mock) were separately transfected into HEK-293 cells as controls. Cells were transfected and seeded on the same day at 17,500 cells/well in poly-D-lysine-coated 384-well plates (MATRIX #4332-CPL). Twenty-four hours after seeding, the activity of transfected TRPM8 receptors was tested using the calcium mobilization assay as described above. The analysis was performed on the basis of ΔF/F° (normalized MAX-MIN), where ΔF is the MAX between time points 117 and 182 minus the MIN between time points TP114 and TP116, and F° is the basal signal at time point TP0. The obtained data from at least four wells (as replicates) were analyzed with GraphPad PRISM® software (version 5, GraphPad Software Inc.) to calculate the mean and standard error of the mean[58], to create sigmoidal concentration-response curves and to calculate IC50 values.

[5] = target: T3, TRPM8 D802A (Homo sapiens, UniProt Q7Z2W7, D802A); test: Calcium mobilization on transiently transfected TRPM8 D802A mutant; conditions: Cooling agent 10 at EC80, D802A; read-out: pIC50, inhibition of Cooling agent 10 activation, D802A (converted)
T3 construct: expressed in transfected cells; host or cells: HEK-293, transient (Lipofectamine 2000)
Text: as §1
as §3, with “Cells were transfected and seeded on the same day at 17,500 cells/well in poly-D-lysine-coated 384-well plates (MATRIX #4332-CPL). Twenty-four hours after seeding, the activity of transfected TRPM8 receptors was tested using the calcium mobilization assay as described above. The analysis was performed on the basis of ΔF/F° (normalized MAX-MIN), where ΔF is the MAX between time points 117 and 182 minus the MIN between time points TP114 and TP116, and F° is the basal signal at time point TP0.” left out

[6] = target: T4, TRPM8 (Homo sapiens, UniProt Q7Z2W7); test: Schild regression versus icilin; conditions: data not shown
T4 construct: expressed in transfected cells
Procedure: Compound 1 was also tested in schild regression experiments[65] and compared with icilin and cooling agent (data not shown) to better characterize its mechanism of action. In these experiments, seven points for dose-response curves with icilin at seven different concentrations were analyzed.

[7] = target: T4, TRPM8; test: Calcium mobilization assay (HTS and dose-response) on HEK-293/hTRPM8 cells; conditions: for IC50: calcium mobilization
Procedure: All experiments were performed on HEK-293/hTRPM8 cells stably transfected with the human TRPM8 gene, except for site-directed mutagenesis analysis, which was performed on transient transfectants. In details, HEK-293 cells (ATCC, Manassas, Virginia) were transfected with the pcDNA3/hTRPM8 vector by electroporation (300 Volts, 950 µF) then selected with medium containing 0,8 mg/ml G418 for 10–15 days. Then the stable transfected pool underwent two rounds of limiting dilutions, in eight 96 well plates at a cell density of 1 cell/well, in order to obtain pure clones. The best responder clone was selected based on its response to 1 mM menthol in calcium mobilization experiments. HEK-293/hTRPM8 cells were maintained in EMEM (Minimum Essential Medium Eagle with Earl’s salts Balanced Salt Solution, LONZA) supplemented with 2 mM Ultraglutamine1 (Lonza), 1% Penicillin/Streptomycin (LONZA), 10% of Fetal Bovine Serum (Euroclone) and 0,4 mg/mL G418 (InvivoGen).
as §2
After addition of the agonist, the fluorescence signal was recorded over the next 3 min. The bioactivity exerted by the compounds was expressed as a percentage of inhibition. The percentage scale is defined as follows: 100% inhibition was considered as the relative fluorescence units (RFUs) of the value of the MIN controls in the second injection (antagonist Capsazepine at IC100 = 50 µM) and 0% inhibition was considered as the RFU values of the value of the MAX controls in the second injection (Cooling agent 10 at EC80 = 30 µM). Data from four replicates were analyzed using GraphPad PRISM® software (version 5, GraphPad Software Inc.) to calculate the mean and standard error of the mean, to create sigmoidal concentration-response curves and to calculate IC50 values.

T4 sequence (Q7Z2W7 whole entry): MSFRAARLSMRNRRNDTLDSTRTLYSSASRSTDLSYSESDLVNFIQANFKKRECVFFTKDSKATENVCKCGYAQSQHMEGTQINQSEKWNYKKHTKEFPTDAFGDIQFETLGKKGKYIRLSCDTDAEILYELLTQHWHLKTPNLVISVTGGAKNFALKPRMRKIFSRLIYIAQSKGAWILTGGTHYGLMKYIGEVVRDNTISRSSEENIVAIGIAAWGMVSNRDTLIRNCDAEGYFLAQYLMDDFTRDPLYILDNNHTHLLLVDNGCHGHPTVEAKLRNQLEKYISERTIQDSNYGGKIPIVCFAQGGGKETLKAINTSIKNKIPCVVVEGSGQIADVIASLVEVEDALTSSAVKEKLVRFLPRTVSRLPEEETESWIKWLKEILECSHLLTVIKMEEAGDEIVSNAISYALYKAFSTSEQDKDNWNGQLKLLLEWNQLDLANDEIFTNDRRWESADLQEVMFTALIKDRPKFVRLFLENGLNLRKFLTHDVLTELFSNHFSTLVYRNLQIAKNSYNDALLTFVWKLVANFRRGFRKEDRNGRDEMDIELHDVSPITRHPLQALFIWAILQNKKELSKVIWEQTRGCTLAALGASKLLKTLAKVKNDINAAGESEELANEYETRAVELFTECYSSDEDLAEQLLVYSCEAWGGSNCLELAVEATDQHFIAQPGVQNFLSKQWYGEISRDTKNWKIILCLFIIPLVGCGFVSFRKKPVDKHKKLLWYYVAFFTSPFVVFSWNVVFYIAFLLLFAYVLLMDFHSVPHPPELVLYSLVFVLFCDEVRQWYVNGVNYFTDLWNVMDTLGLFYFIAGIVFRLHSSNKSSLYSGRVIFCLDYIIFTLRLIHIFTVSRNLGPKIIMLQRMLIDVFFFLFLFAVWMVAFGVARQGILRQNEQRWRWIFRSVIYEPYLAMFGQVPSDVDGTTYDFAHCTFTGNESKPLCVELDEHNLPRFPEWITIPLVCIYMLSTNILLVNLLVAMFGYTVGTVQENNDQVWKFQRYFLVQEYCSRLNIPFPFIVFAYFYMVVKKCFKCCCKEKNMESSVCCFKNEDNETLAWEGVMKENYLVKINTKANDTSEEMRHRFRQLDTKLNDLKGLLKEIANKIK
Chain of TRPV1 (Q8NER1 whole entry, species assumed): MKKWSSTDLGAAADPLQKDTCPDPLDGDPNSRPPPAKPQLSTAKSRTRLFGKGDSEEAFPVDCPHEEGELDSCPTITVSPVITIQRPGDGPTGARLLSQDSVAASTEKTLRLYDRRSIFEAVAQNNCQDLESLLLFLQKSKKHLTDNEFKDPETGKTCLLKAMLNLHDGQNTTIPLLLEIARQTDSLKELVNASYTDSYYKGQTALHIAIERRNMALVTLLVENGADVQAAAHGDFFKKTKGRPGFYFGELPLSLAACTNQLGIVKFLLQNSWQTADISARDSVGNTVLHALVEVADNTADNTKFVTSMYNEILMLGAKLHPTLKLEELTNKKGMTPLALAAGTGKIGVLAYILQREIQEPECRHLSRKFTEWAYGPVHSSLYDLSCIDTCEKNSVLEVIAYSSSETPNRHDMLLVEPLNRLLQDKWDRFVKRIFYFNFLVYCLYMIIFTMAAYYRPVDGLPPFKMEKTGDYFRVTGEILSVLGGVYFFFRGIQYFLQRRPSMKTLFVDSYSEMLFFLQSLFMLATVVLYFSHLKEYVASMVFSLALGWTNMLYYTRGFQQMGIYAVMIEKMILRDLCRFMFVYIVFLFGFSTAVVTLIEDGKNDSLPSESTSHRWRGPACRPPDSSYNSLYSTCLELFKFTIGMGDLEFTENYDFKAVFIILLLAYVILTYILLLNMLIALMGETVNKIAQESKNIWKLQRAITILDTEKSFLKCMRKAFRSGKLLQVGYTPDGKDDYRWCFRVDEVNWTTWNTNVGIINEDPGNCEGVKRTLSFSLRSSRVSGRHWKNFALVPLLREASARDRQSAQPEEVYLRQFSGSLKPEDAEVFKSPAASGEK
Chain of TRPV4 (Q9HBA0 whole entry, species assumed): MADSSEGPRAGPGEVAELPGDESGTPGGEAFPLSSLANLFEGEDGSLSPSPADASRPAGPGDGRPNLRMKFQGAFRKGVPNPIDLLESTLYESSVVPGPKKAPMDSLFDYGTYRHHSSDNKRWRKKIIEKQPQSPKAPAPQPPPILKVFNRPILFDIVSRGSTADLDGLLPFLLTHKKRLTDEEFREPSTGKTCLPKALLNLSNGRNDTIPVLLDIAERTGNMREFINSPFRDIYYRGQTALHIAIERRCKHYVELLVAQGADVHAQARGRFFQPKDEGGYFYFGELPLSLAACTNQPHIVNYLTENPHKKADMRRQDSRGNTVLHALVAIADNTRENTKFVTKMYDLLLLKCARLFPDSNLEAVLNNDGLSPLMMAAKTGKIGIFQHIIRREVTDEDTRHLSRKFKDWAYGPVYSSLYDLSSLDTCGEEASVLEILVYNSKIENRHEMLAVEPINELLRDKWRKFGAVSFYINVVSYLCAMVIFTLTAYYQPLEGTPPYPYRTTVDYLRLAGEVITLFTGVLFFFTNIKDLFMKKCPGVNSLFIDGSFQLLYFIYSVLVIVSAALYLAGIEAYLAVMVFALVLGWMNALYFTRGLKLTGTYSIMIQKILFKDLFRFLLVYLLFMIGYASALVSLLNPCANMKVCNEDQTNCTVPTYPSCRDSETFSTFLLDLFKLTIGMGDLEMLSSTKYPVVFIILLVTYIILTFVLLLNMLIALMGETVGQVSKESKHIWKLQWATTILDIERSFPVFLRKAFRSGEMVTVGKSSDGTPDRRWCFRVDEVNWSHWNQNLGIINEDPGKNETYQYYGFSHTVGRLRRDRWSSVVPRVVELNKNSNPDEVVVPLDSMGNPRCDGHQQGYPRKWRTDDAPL
T1 sequence (Q7Z2W7 whole entry): as the sequence (Q7Z2W7 whole entry) above
T3 sequence (Q7Z2W7 whole entry D802A): as the sequence (Q7Z2W7 whole entry) above, with D802A counted along it
T2 sequence (Q7Z2W7 whole entry N799A): as the sequence (Q7Z2W7 whole entry) above, with N799A counted along it

Clc1c(OCCNCc2ccco2)ccc2ccccc12 [Compound 1]
IC50 [1]: 63.1 nM
Activity on TRPV1 [2]: completely inactive; also recorded: didn’t have any effect
Activity on TRPV4 [3]: completely inactive
IC50 [4]: 10 nM
IC50 [5]: 3160 nM
Binding mechanism by Schild regression [6]: orthosteric binding mechanism
pIC50 ([7]; HTS campaign activity determination, Fig. 4): 7.15
IC50 ([7]; agonist Cooling agent 10, read-out: pIC50 with Cooling agent 10 (converted)): 41.7 nM
IC50 ([7]; agonist icilin, read-out: pIC50 with icilin (converted)): 58.9 nM
